Assay results taken from US9737516B2, “Bicyclic heterocycles as bet protein inhibitors” (Incyte Corporation, priority 2013, dated 2017).

How the values were obtained:
BRD4-BD1 = BRD4-BD1 (Homo sapiens (Human), UniProt O60885); experiment: BRD4 AlphaScreen assay (BRD4-BD1); assay type: binding; settings: H4Ac4 peptide, 3.8 nM BRD4-BD1, read-out: BRD4 BD-1 enzyme IC50
Description: (§1) BRD4-BD1 and BRD4-BD2 assays were conducted in white 384-well polystyrene plate in a final volume of 20 μL for BD1 and 40 μL for BD2. Inhibitors were first serially diluted in DMSO and added to the plate wells before the addition of other reaction components. The final concentration of DMSO in the assay was 1.25% (BD1) and 0.83% (BD2). The assays were carried out at room temperature for 75 min. in the assay buffer (50 mM HEPES, pH 7.4, 100 mM NaCl, 0.05% CHAPS, 0.01% BSA), containing 50 nM Biotin-labeled tetra-acetylated histone H4 peptide (H4Ac4), 3.8 nM (BRD4-BD1, BPS Bioscience #31040) or 20 nM (BRD4-BD2, BPS Bioscience #31041). The reaction followed by the addition of 20 μL of assay buffer supplemented with Streptavidin donor beads (PerkinElmer 6760002) and GSH Acceptor beads (PerkinElmer-AL109C) at 4 µg/mL under reduced light. After plate sealing, the plate was incubated in the dark at room temperature for 75 min. before reading on a PHERAstar FS plate reader (BMG Labtech). IC50 determination was performed by fitting the curve of percent control activity versus the log of the inhibitor concentration using the GraphPad Prism 5.0 software. IC50 data for the Examples is presented in Table 1 as determined by Assay A1.

BRD4-BD2 = BRD4-BD2 (Homo sapiens (Human), UniProt O60885); experiment: BRD4 AlphaScreen assay (BRD4-BD2); assay type: binding; settings: H4Ac4 peptide, 20 nM BRD4-BD2, read-out: BRD4 BD-2 enzyme IC50
Description: as §1

KMS.12.BM cells = experiment: KMS.12.BM cell viability assay (ATP quantitation, Cell Titer-GLO); assay type: cell-based; settings: Homo sapiens, 72 h, 3 days, concentration required for 50% cell death, read-out: KMS cellular IC50
Description: KMS.12.BM cell line (human myeloma) was purchased from JCRB (Osaka, Japan) and maintained in RPMI with 10% FBS culture medium. To measure the cytotoxic activity of the compounds through ATP quantitation, the KMS.12.BM cells are plated in the RPMI culture medium at 5000 cells/well/per 100 μL into a 96-well polystyrene clear black tissue culture plate (Greiner-bio-one through VWR, NJ), in the presence or absence of a concentration range of test compounds. After 3 days, […] Cell Titer-GLO Luminescent (Promega, Madison, Wis.) cell culture agent is added to each well for 10 minutes at room temperature to stabilize the luminescent signal. This determines the number of viable cells in culture based on quantitation of the ATP present, which signals the presence of metabolically active cells. Luminescence is measured with the Top Count 384 (Packard Bioscience through Perkin Elmer, Boston, Mass.). Compound inhibition is determined relative to cells cultured with no drug and the IC50 is reported as the compound concentration required for 50% cell death. IC50 data for the Examples is presented in Table 2 as determined by Assay B1.

C-myc in KMS.12.BM cells = experiment: KMS.12.BM C-myc ELISA assay; assay type: cell-based; settings: Homo sapiens, 2 hours
Description: KMS.12.BM cell line (human myeloma) was purchased from JCRB (Osaka, Japan) and maintained in RPMI with 10% FBS culture medium. To measure the C-myc inhibitory activity of the compounds, the KMS.12.BM cells are plated in the RPMI culture medium at 75000 cells/well/per 200 μL into a 96-well flat bottom polystyrene tissue culture plate (Corning through VWR, N.J.), in the presence or absence of a concentration range of test compounds. After 2 hours, cell are pelleted and lysed with Cell Extraction Buffer (BioSource, Carlsbad, Calif.) in the presence of protease inhibitors (Life Technologies, Grand Island, N.Y. and Sigma, St Louis, Mo.). Clarified lyses are tested in a C-myc commercial ELISA (Life Technologies, Grand Island, N.Y.). Compound inhibition is determined relative to cells cultured with no drug and the IC50 is reported as the compound concentration required for 50% C-myc inhibition. IC50 data for the Examples is presented in Table 3 as determined by Assay C1.

| IC50 (BRD4-BD1) | IC50 (BRD4-BD2) | IC50 (C-myc in KMS.12.BM cells) | SMILES | IC50 (KMS.12.BM cells) |
| --- | --- | --- | --- | --- |
| ≤ 100 nM | ≤ 100 nM | ≤ 1000 nM | CC(C)n1cnc2cc(-c3cn(C)c(=O)c4[nH]ccc34)c(OCC3CCC3)cc21 [Example 19, 4-[6-(cyclobutylmethoxy)-1-isopropyl-1H-benzimidazol-5-yl]-6-methyl-1,6-dihydro-7H-pyrrolo[2,3-c]pyridin-7-one] | ≤ 1000 nM |
| ≤ 100 nM | ≤ 100 nM | ≤ 1000 nM | Cn1cc(-c2cc3[nH]c(N4CCCCC4)nc3cc2OCC2CCC2)c2cc[nH]c2c1=O [Example 20, 4-[5-(Cyclobutylmethoxy)-2-piperidin-1-yl-1H-benzimidazol-6-yl]-6-methyl-1,6-dihydro-7H-pyrrolo[2,3-c]pyridin-7-one] | ≤ 1000 nM |
